From US20240058364A1, “A COMPOSITION FOR USE IN THE TREATMENT OF RECTAL AND/OR INTESTINAL INFLAMMATION” (CANNAMORE BIOTECHS LTD., priority 2020, published 2024) come the findings set out here.

The test system of the data set is IL8 secretion from TNFα induced Caco-2 cells. The experiment in a line: IL8 secretion from TNFα induced Caco-2 cells (HTRF). It counts as cell-based, Human. The settings on record: 24 h incubation; combinations: CBD 30 μM with NaB or NaP 20 mM. The protocol: Cell lines were cultured according to standard mammalian tissue culture protocols and sterile technique. Human colon epithelial cells, Caco-2, were cultured in high glucose Dulbecco's Modified Eagle Medium (DMEM). Human monocytes THP-1 cells line were cultured in RPMI medium 1640. Both media were supplemented with 10% fetal bovine serum (FBS), 2 mM 1-glutamine and 0.1% penicillin-streptomycin solution in a humidified atmosphere (5% CO2, 95% air, 37° C.) in a 75 cm2 cell culture treated flask (Eppendorf). All the media and supplements were obtained from Biological Industries.
Interleukin 8 (IL 8) detection and quantification was performed with Homogeneous Time-Resolved fluorescence (HTRF).
Caco-2 cells were seeded in a 96 micro well delta surface plates (Eppendorf) at a starting confluence of 2×10^4 cells/well and were incubated for 21 days. Growth medium was replaced every 2-3 days.
After 22 days, the medium was replaced with medium containing both TNFα (as a damage inducer) and the tested sample (as treatment) using specific media containing 5% FBS. After 24 hours incubation, the supernatant was collected and stored for cytokine analysis. The supernatant was diluted up to 5 times in working media to avoid the hook effect.
HTRF assays were performed in white 96-well plate (CisBio Bioassays) with a total working volume of 20 μL. All HTRF reagents were purchased from CisBio Bioassays and reconstituted according to the manufacturer protocols. For each assay 16 μL of diluted supernatants samples were incubate with 4 μL mixed solution containing donor and acceptor antibodies.
After 2 h incubation HTRF signals were measured using SPARK multimode microplate reader with an excitation filter at 320 nm and fluorescence wavelength measurement at 620 and 665 nm, an integration delay of 60 μs and an integration time of 400 μs. Results were analyzed with a two-wavelength signal ratio: [intensity (665 nm)/intensity (620 nm)]*104. Calculation and analysis of cytokines release was performed according to the manufacturer protocols and using the 4PL 1/Y2 formula in GraphPad Prism software.
In general terms: TR-FRET usually uses a lanthanide donor and a delayed reading to cut background.
For `C=C(C)[C@@H]1CCC(C)=C[C@H]1c1c(O)cc(CCCCC)cc1O` [CBD, 2-[(6R)-3-Methyl-6-prop-1-en-2-yl-1cyclohex-2-envyl]-5pentylbenzene-1,3-diol, reference compound], the “IL8 secretion from TNFα induced Caco2 cells (result in words)” value (shortened to “IL8 secretion”) is given as “didn't exhibit any significant effect”.

Turning to `CCCC(=O)[O-].[Na+]` [NaB, sodium butyrate], the “IL8 secretion” value is reported as “didn't exhibit any significant effect”.

As to `CCC(=O)[O-].[Na+]` [NaP, sodium propionate], the “IL8 secretion” value is “mild reduction of IL8 secretion”.
